In patent US6410533B1, “Antibacterial compounds” (Genzyme Corporation, priority 2000, dated 2002):
≈ marks a conversion by molar mass, not a printed value. Like-named read-outs stand apart in the source and are kept apart here.

Tests used:
[1] = test system: methicillin-resistant Staphylococcus aureus (ATCC 33591); experiment: In vivo mouse intraperitoneal infection, mortality and % survivors over 7 days; details: 1 and 5 h post inoculation, MRSA ATCC 33591 i.p., ICR mice
Protocol: Ten male ICR mice weighing 20 grams were inoculated intraperitoneally with an LD90-100 dose (2-3×10^7 CFU/mouse) of methicillin-resistant Staphylococcus aureus (ATCC 33591) in brain-heart infusion broth containing 5% mucin. Compounds were suspended in a vehicle containing 1% cremophore EL (Sigma) in normal saline and were administered subcutaneously in a volume of 0.4 ml per mouse either 1 hour following bacterial inoculation or 1 and 5 hours post inoculation. Animals receiving two doses of drug were injected subcutaneously in the hindquarter one hour post-innoculation and in the neck area, 5 hours post-innoculation. Deaths occurring during the subsequent 7 days are recorded. Mortality and % survivor endpoints are calculated.

[2] = test system: Staphylococcus aureus bacteria (ATCC 9604 SV); experiment: Minimal inhibitory concentration (MIC), broth microdilution; format: cell-based; details: 24 h at 37° C.
Protocol: (§1) Minimal inhibitory concentrations (MICs) for Staphylococcus aureus bacteria (ATCC 9604 SV) were determined by broth microdilution methodology following National Committee for Clinical Laboratory Standards. In the MIC determinations, the compounds were incorporated into Mueller-Hinton broth (Becton Dickinson Microbiology systems, Cockeyville, Md.) at a series of concentrations. After the test organism was grown overnight in TB broth, the broths were adjusted to the turbidity equivalent to 0.05 McFarland standard. The suspensions were diluted twenty-fold into the broth containing the compounds. […] In the IC50 determination, the method was modified to allow the rapid growth of the organisms. The inoculum suspensions were adjusted to 0.1 McFarland standard and then diluted two-fold into the wells containing TB broth and the compounds. After three to five hours incubation at 37° C., the turbidity was measured at 550 nm and inhibitory activity was defined as the concentration of antimicrobial agent that inhibits 50% growth of the organism in the microdilution wells.

[3] = test system: Staphylococcus aureus bacteria (ATCC 9604 SV); experiment: IC50 determination, growth inhibition by turbidity at 550 nm; format: cell-based; details: Staphylococcus aureus ATCC 9604 SV; turbidity at 550 nm after 3-5 h at 37° C.
Protocol: as §1

[4] = Staphylococcus aureus ATCC 9604 SV
[5] = ATCC9604, Staphylococcus aureus ATCC 9604 SV, read-out: MIC

Row | Compound | In Vivo, double dose (% of mice rescued) ([1]; 2 × 2 mg/kg s.c.) | In Vivo, double dose (% of mice rescued) ([1]; 2 × 20 mg/kg s.c.) | MIC [2, 4] | MIC [2, 5] | IC50 [3]
1 | O=C1C(=Cc2cccnc2)C(c2ccccc2)=NN1c1cc(Cl)cc(Cl)c1 [Compound 30] | 0% @ 2 × 2 mg/kg | 0% @ 2 × 20 mg/kg | 1.20 µg/mL (≈ 3.04 µM) |  | 
2 | CN1CCC(=C2C(=O)N(c3cc(Cl)cc(Cl)c3)N=C2c2ccccc2)CC1 [Compound 31, 2-(3,5-Dichloro-phenyl)-4-(1-methyl-piperidin-4-ylidene)-5-phenyl-2,4-dihydropyrazol-3-one] | 0% @ 2 × 2 mg/kg | 0% @ 2 × 20 mg/kg |  | 5 µg/mL (≈ 12.5 µM) | 
3 | O=C1C(=Cc2ccsc2)C(c2ccccc2)=NN1c1cc(Cl)cc(Cl)c1 [Compound 33] | 25% @ 2 × 2 mg/kg | 0% @ 2 × 20 mg/kg | 5.00 µg/mL (≈ 12.5 µM) |  | 
4 | O=C1C(=Cc2ccoc2)C(c2ccccc2)=NN1c1cc(Cl)cc(Cl)c1 [Compound 34] | 25% @ 2 × 2 mg/kg | 25% @ 2 × 20 mg/kg | 2.40 µg/mL (≈ 6.26 µM) |  | 
5 | O=C1Nc2ccccc2C1=C1C(=O)N(c2cc(Cl)cc(Cl)c2)N=C1c1ccccc1 [Compound 42] | 0% @ 2 × 2 mg/kg | 0% @ 2 × 20 mg/kg | 1.20 µg/mL (≈ 2.76 µM) |  | 
6 | O=C(O)C=C1C(=O)N(c2cc(Cl)cc(Cl)c2)N=C1c1ccccc1 [Compound 46] | 0% @ 2 × 2 mg/kg | 0% @ 2 × 20 mg/kg | 1.50 µg/mL (≈ 4.15 µM) |  | 
7 | COc1ccc(C(=O)C2C(=O)N(c3cc(Cl)cc(Cl)c3)N=C2c2ccccc2)cc1 (stereo not shown) [Compound 49] | 0% @ 2 × 2 mg/kg | 25% @ 2 × 20 mg/kg | 10.0 µg/mL (≈ 22.8 µM) |  | 
8 | O=C(c1ccccn1)C1C(=O)N(c2cc(Cl)cc(Cl)c2)N=C1c1ccccc1 (stereo not shown) [Compound 50, 2-(3,5-Dichloro-phenyl)-5-phenyl-4-(pyridine-2-carbonyl)-2,4-dihydro-pyrazol-3-one] | 0% @ 2 × 2 mg/kg | 0% @ 2 × 20 mg/kg |  | 10.3 µg/mL (≈ 25.1 µM) | 
9 | O=C(O)c1cccc(C=C2C(=O)N(c3cc(Cl)cc(Cl)c3)N=C2c2ccccc2)c1 [Compound 51] | 25% @ 2 × 2 mg/kg | 25% @ 2 × 20 mg/kg | 1.31 µg/mL (≈ 3 µM) |  | 
10 | O=C(O)c1ccc(C=C2C(=O)N(c3cc(Cl)cc(Cl)c3)N=C2c2ccccc2)cc1 [Compound 52] | 0% @ 2 × 2 mg/kg | 0% @ 2 × 20 mg/kg | 0.656 µg/mL (≈ 1.5 µM) |  | 
11 | CCC1=NN(c2cc(Cl)cc(Cl)c2)C(=O)C1=Cc1cccnc1 [Compound 54] | 0% @ 2 × 2 mg/kg | 12.5% @ 2 × 20 mg/kg | 0.750 µg/mL (≈ 2.17 µM) |  | 
12 | CCC1=NN(c2cc(Cl)cc(Cl)c2)C(=O)C1=Cc1ccco1 [Compound 55] | 0% @ 2 × 2 mg/kg | 25% @ 2 × 20 mg/kg | 1.50 µg/mL (≈ 4.48 µM) |  | 
13 | CCC1=NN(c2cc(Cl)cc(Cl)c2)C(=O)C1=C1C(=O)Nc2ccccc21 [Compound 56] | 0% @ 2 × 2 mg/kg | 0% @ 2 × 20 mg/kg | 1.50 µg/mL (≈ 3.88 µM) |  | 
14 | CCC1=NN(c2cc(Cl)cc(Cl)c2)C(=O)C1=CC(=O)O [Compound 57] | 0% @ 2 × 2 mg/kg | 0% @ 2 × 20 mg/kg | 6.25 µg/mL (≈ 20 µM) |  | 
15 | CCC1=NN(c2cc(Cl)cc(Cl)c2)C(=O)C1=Cc1cccc(C(=O)O)c1 [Compound 58] | 25% @ 2 × 2 mg/kg | 12.5% @ 2 × 20 mg/kg | 6.25 µg/mL (≈ 16.1 µM) |  | 
16 | CCC1=NN(c2cc(Cl)cc(Cl)c2)C(=O)C1=Cc1ccc(C(=O)O)cc1 [Compound 59] | 12.5% @ 2 × 2 mg/kg | 12.5% @ 2 × 20 mg/kg | 0.400 µg/mL (≈ 1.03 µM) |  | 
17 | O=C1CC(Cc2ccccc2)=NN1c1cc(Cl)cc(Cl)c1 [Compound 65] | 0% @ 2 × 2 mg/kg | 0% @ 2 × 20 mg/kg | 0.958 µg/mL (≈ 3 µM) |  | 
18 | O=C1C(CCc2ccccn2)C(c2ccccc2)=NN1c1cc(Cl)cc(Cl)c1 (stereo not shown) [Compound 66] | 25% @ 2 × 2 mg/kg | 0% @ 2 × 20 mg/kg | 5.13 µg/mL (≈ 12.5 µM) |  | 
19 | O=C(Nc1cc(C(F)(F)F)cc(C(F)(F)F)c1)Nc1c(-c2ccccc2)cnn1-c1ccc(C(F)(F)F)cc1 [Compound 71] |  |  |  |  | 330 nM
20 | O=C(Nc1cc(C(F)(F)F)cc(C(F)(F)F)c1)Nc1cc(-c2cccc(Cl)c2)nn1-c1ccc(C(F)(F)F)cc1 [Compound 78] |  |  |  |  | 206 nM
21 | O=C(Nc1cc(C(F)(F)F)cc(C(F)(F)F)c1)Nc1cc(-c2ccc(Cl)cc2)nn1-c1ccc(C(F)(F)F)cc1 [Compound 79] |  |  |  |  | 126 nM
22 | O=C(Nc1cc(C(F)(F)F)cc(C(F)(F)F)c1)Nc1cc(-c2cccc(C(F)(F)F)c2)nn1-c1ccc(C(F)(F)F)cc1 [Compound 80] |  |  |  |  | 539 nM
23 | O=C(Nc1cc(C(F)(F)F)cc(C(F)(F)F)c1)Nc1cc(-c2ccc(OC(F)(F)F)cc2)nn1-c1ccc(C(F)(F)F)cc1 [Compound 81] |  |  |  |  | 159 nM
24 | COc1ccc(-c2cc(NC(=O)Nc3cc(C(F)(F)F)cc(C(F)(F)F)c3)n(-c3ccc(C(F)(F)F)cc3)n2)cc1 [Compound 82] |  |  |  |  | 149 nM
25 | O=C(Nc1cc(C(F)(F)F)cc(C(F)(F)F)c1)Nc1cc(-c2ccccn2)nn1-c1ccc(C(F)(F)F)cc1 [Compound 85] |  |  |  |  | 359 nM
26 | Cc1cc(-c2cc(NC(=O)Nc3cc(Cl)cc(Cl)c3)n(-c3ccc(Br)cc3)n2)no1 [Compound 114] |  |  |  |  | 1630 nM
27 | CC(C)(C)c1csc(NC(=O)Nc2cc(C(F)(F)F)cc(C(F)(F)F)c2)n1 [Compound 124] |  |  |  |  | 513 nM
28 | O=C(Nc1cc(C(F)(F)F)cc(C(F)(F)F)c1)Nc1nc(CCCO)cs1 [Compound 125] |  |  |  |  | 2070 nM
29 | CC(C)(C)c1csc(NC(=O)NCc2cccc(Cl)c2)n1 [Compound 172] | 12.5% @ 2 × 2 mg/kg | 25% @ 2 × 20 mg/kg | 8.10 µg/mL (≈ 25 µM) |  | 
30 | O=C(NCc1cccc(Cl)c1)Nc1nc(C2CCCC2)cs1 [Compound 173] | 25% @ 2 × 2 mg/kg | 25% @ 2 × 20 mg/kg | 8.40 µg/mL (≈ 25 µM) |  | 
